Test results published in US10246419B2, “Liver X receptor (LXR) modulators” (Ralexar Therapeutics, Inc., priority 2013, dated 2019).

These compounds were tested against human LXRβ (AA 153-461) LBD (Homo sapiens (Human), UniProt P55055) (assay: Gal4 LXRβ cotransfection assay (LXRβ Gal fusion assay)). Settings: HEK 293 cells transiently transfected, Gal4-responsive luciferase reporter, compounds 0.01-10 μM.
Format: cell-based
Method: For transient transfection of HEK 293 cells, 6×10^3 cells are plated into 96-well dishes. Each well is transfected with 25 ng 5×UAS-luciferase reporter (pG5luc) and 25 ng of pM human LXRβ (AA 153-461) LBD plasmid using Fugene 6 reagent (Roche; Indianapolis, Ind.). The chimeric protein is assessed for the ability to transactivate a Gal4-responsive luciferase reporter plasmid in a concentration-responsive manner to compounds (0.01-10 μM). Luciferase activity at each dose concentration is measured in triplicate using standard substrate reagents (BD Biosciences; San Diego, Calif.).

Chain of human LXRβ (AA 153-461) LBD (P55055 153-460 limits assumed): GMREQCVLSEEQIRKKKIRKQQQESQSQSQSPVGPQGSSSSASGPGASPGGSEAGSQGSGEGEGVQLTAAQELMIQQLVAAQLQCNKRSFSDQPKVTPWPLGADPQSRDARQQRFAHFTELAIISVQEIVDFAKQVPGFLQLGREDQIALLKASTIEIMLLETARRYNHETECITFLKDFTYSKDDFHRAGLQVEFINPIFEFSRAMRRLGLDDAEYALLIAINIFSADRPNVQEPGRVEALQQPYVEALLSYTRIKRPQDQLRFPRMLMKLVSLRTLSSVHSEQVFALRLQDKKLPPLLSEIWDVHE

EC50	Structure (SMILES)
< 1000 nM	CC(C)Cn1nc(C(F)(F)F)cc1-c1ccc(-c2cccc(S(C)(=O)=O)c2)cc1 [Compound 4, 1-isobutyl-5-(3′-(methylsulfonyl)biphenyl-4-yl)-3-(trifluoromethyl)-1H-pyrazole]
< 1000 nM	CS(=O)(=O)c1cccc(-c2ccc(-c3cc(C(F)(F)F)nn3CC3CC3)cc2)c1 [Compound 18, 1-(cyclopropylmethyl)-5-(3′-(methylsulfonyl)-[1,1′-biphenyl]-4-yl)-3-(trifluoromethyl)-1H-pyrazole]
> 10000 nM	CS(=O)(=O)c1cccc(-c2ccc(-c3cc(C(F)(F)F)nn3C3CCCCC3)cc2)c1 [Compound 20, 1-cyclohexyl-5-(3′-(methylsulfonyl)-[1,1′-biphenyl]-4-yl)-3-(trifluoromethyl)-1H-pyrazole]
< 1000 nM	CS(=O)(=O)c1cccc(-c2ccc(-c3cc(C(F)(F)F)nn3CC3CCCCC3)cc2)c1 [Compound 21, 1-(cyclohexylmethyl)-5-(3′-(methylsulfonyl)-[1,1′-biphenyl]-4-yl)-3-(trifluoromethyl)-1H-pyrazole]

Further lines, the compound ahead of its results:

Structure (SMILES)	EC50
CC(C)Cn1nc(C(F)(F)F)cc1-c1ccc(-c2ccc(CO)c(S(C)(=O)=O)c2)cc1 [Compound 5, (4′-(1-isobutyl-3-(trifluoromethyl)-1H-pyrazol-5-yl)-3-(methylsulfonyl)biphenyl-4-yl)methanol]	< 1000 nM
CC(C)Cn1nc(C(=O)NCC(F)(F)F)cc1-c1ccc(-c2cccc(S(C)(=O)=O)c2)cc1 [Compound 6, 1-Isobutyl-5-(3′-(methylsulfonyl)-[1,1′-biphenyl]-4-yl)-N-(2,2,2-trifluoroethyl)-1H-pyrazole-3-carboxamide]	< 1000 nM
CC(C)Cn1nc(C(=O)NCC(F)(F)F)cc1-c1ccc(-c2ccc(CO)c(S(C)(=O)=O)c2)cc1 [Compound 7, 5-(4′-(Hydroxymethyl)-3′-(methylsulfonyl)-[1,1′-biphenyl]-4-yl)-1-isobutyl-N-(2,2,2-trifluoroethyl)-1H-pyrazole-3-carboxamide]	< 1000 nM
CC(C)Cc1nc(C(C)(C)O)cn1-c1ccc(-c2cccc(S(C)(=O)=O)c2)cc1 [Compound 8, 2-(2-isobutyl-1-(3′-(methylsulfonyl)-[1,1′-biphenyl]-4-yl)-1H-imidazol-4-yl)propan-2-ol]	1000 to 10000 nM
C=C(C)c1cc(-c2ccc(-c3cccc(S(C)(=O)=O)c3)cc2)n(CC(C)C)n1 [Compound 9, 1-isobutyl-5-(3′-(methylsulfonyl)-[1,1′-biphenyl]-4-yl)-3-(prop-1-en-2-yl)-1H-pyrazole]	1000 to 10000 nM
CC(C)Cn1nc(C(C)(C)O)cc1-c1ccc(-c2ccc(CO)c(S(C)(=O)=O)c2)cc1 [Compound 10, 2-(5-(4′-(Hydroxymethyl)-3′-(methylsulfonyl)-[1,1′-biphenyl]-4-yl)-1-isobutyl-1H-pyrazol-3-yl)propan-2-ol]	1000 to 10000 nM
CC(C)Cn1nc(C(C)(C)O)cc1-c1ccc(-c2cccc(S(C)(=O)=O)c2)cc1 [Compound 11, 2-(1-isobutyl-5-(3′-(methylsulfonyl)-[1,1′-biphenyl]-4-yl)-1H-pyrazol-3-yl)propan-2-ol]	1000 to 10000 nM
CC(C)Cn1nc(C(C)C)cc1-c1ccc(-c2cccc(S(C)(=O)=O)c2)cc1 [Compound 12, 1-isobutyl-3-isopropyl-5-(3′-(methylsulfonyl)-[1,1′-biphenyl]-4-yl)-1H-pyrazole]	1000 to 10000 nM
CCC(C)n1nc(C(F)(F)F)cc1-c1ccc(-c2cccc(S(C)(=O)=O)c2)cc1 (stereo not shown) [Compound 19, 1-(sec-butyl)-5-(3′-(methylsulfonyl)-[1,1′-biphenyl]-4-yl)-3-(trifluoromethyl)-1H-pyrazole]	> 10000 nM
